The values below come from patent US10051857B2, “Formulation component” (SYNGENTA LIMITED, priority 2011, dated 2018).

Molecules are shown by their SMILES.

What all share (assay type): in vivo
Assay [1] concerns four weed species (CHEAL, ABUTH, BRAPP, DIGSA). Nature of the assay: Glasshouse adjuvant test with nicosulfuron (Example 2), mean of species. Here is the method: (§1) Compound No. 2 (see Example 1 and Table 1 above) was tested in a glasshouse against four weed species in combination with the herbicide nicosulfuron. An agrochemical composition was prepared containing 0.2% v/v of the adjuvant in a track sprayer and was applied at a volume of 200 liters per hectare. Nicosulfuron was applied at either 30 or 60 grams of pesticide per hectare on weeds which had been grown to the 1.3 or 1.4 leaf stage. The weed species were Chenopodium album (CHEAL), Abutilon theophrasti (ABUTH), […] (BRAPP), and Digitaria sanguinalis (DIGSA).
(§2) Each spray test was replicated three times. The efficacy of the herbicide was assessed visually and expressed as a percentage of the leaf area killed. Samples were assessed at time periods of 7, 14 and 21 days. following application. The results shown in Table 2 below are mean averages over the two rates of nicosulfuron, three replicates and the three assessment timings.

Assay [2] deals with Amaranthus retroflexus (AMARE). The assay is described as follows: Glasshouse adjuvant test with mesotrione (Example 4). Particulars: mesotrione 60 or 120 g/ha, adjuvant 0.2% v/v, 200 l/ha; leaf area killed; mean over two rates, six replicates, 6, 14 and 21 days. Here is the method: (§3) Compound No. 2 was tested in a glasshouse against four weed species in combination with the herbicide mesotrione. An agrochemical composition was prepared containing 0.2% v/v of the adjuvant in a track sprayer and was applied at a volume of 200 liters per hectare. Mesotrione was applied at either 60 or 120 grams of pesticide per hectare on weeds which had been grown to the 1.3 or 1.4 leaf stage. The weed species were Amaranthus retroflexus (AMARE), Abutilon theophrasti (ABUTH), Brachiaria platyphylla (BRAPP), and Digitaria sanguinalis (DIGSA).
(§4) Each spray test was replicated six times. The efficacy of the herbicide was assessed visually and expressed as a percentage of the leaf area killed. Samples were assessed at time periods of 6, 14 and 21 days following application. The results shown in Table 4 below are mean averages over the two rates of mesotrione, six replicates and the three assessment timings. The results are compared to those obtained for mesotrione in combination with the commercially available tank mix adjuvant Turbocharge® D (Syngenta Crop Protection Canada, Inc.).

In assay [3] the test system is Abutilon theophrasti (ABUTH). The description is as above. Particulars: mesotrione 60 or 120 g/ha, adjuvant 0.2% v/v, 200 l/ha; leaf area killed; mean over two rates, six replicates, 6, 14 and 21 days. Here is the method:
as §3, §4

For assay [4], the system named is Brachiaria platyphylla (BRAPP). The description is as above. Conditions: mesotrione 60 or 120 g/ha, adjuvant 0.2% v/v, 200 l/ha; leaf area killed; mean over two rates, six replicates, 6, 14 and 21 days. The procedure: as §3, §4
For assay [5], the system named is Digitaria sanguinalis (DIGSA). The description is as above. Conditions: mesotrione 60 or 120 g/ha, adjuvant 0.2% v/v, 200 l/ha; leaf area killed; mean over two rates, six replicates, 6, 14 and 21 days. Here is the method:
as §3, §4

Assay [6] deals with four weed species (ABUTH, CHEAL, SETVI, XANST). Nature of the assay: Glasshouse adjuvant test with fomesafen (Example 3), mean across species. Conditions: fomesafen 60 or 120 g/ha, adjuvant 0.2% v/v or none. Here is the method:
(§5) Compound No. 2 was tested in a glasshouse against four weed species in combination with the herbicide fomesafen. An agrochemical composition was prepared containing 0.2% v/v of the adjuvant in a track sprayer and was applied at a volume of 200 liters per hectare. Fomesafen was applied at either 60 or 120 grams of pesticide per hectare on weeds which had been grown to the 1.3 or 1.4 leaf stage. The weed species were Chenopodium album (CHEAL), Abutilon theophrasti (ABUTH), Setaria viridis (SETVI), and Xanthium strumarium (XANST).
(§6) Each spray test was replicated six times. The efficacy of the herbicide was assessed visually and expressed as a percentage of the leaf area killed. Samples were assessed at time periods of 7 and 14 days following application. The results shown in Table 3 below are mean averages over the two rates of fomesafen, six replicates and the two assessment timings, and are compared to the efficacy of fomesafen in the absence of adjuvant.

For assay [7], the system named is Xanthium strumarium (XANST). The assay is described as follows: Glasshouse adjuvant test with fomesafen (Example 3). Conditions: fomesafen 60 or 120 g/ha, adjuvant 0.2% v/v or none, 200 l/ha; leaf area killed; mean over two rates, six replicates, 7 and 14 days. Here is the method:
as §5, §6

Assay [8] concerns Chenopodium album (CHEAL). Described as above. Particulars: fomesafen 60 or 120 g/ha, adjuvant 0.2% v/v or none, 200 l/ha; leaf area killed; mean over two rates, six replicates, 7 and 14 days. The procedure: as §5, §6
The next assay concerns Setaria viridis (SETVI). The description is as above. Conditions: fomesafen 60 or 120 g/ha, adjuvant 0.2% v/v or none, 200 l/ha; leaf area killed; mean over two rates, six replicates, 7 and 14 days. The procedure: as §5, §6
For assay [9], the system named is Abutilon theophrasti (ABUTH). The assay is described as above. Particulars: fomesafen 60 or 120 g/ha, adjuvant 0.2% v/v or none, 200 l/ha; leaf area killed; mean over two rates, six replicates, 7 and 14 days. Here is the method:
as §5, §6

Assay [10] relates to four weed species (AMARE, ABUTH, BRAPP, DIGSA). The assay is described as follows: Glasshouse adjuvant test with mesotrione (Example 4), mean across species. Conditions: mesotrione 60 or 120 g/ha, adjuvant 0.2% v/v. The procedure:
as §3, §4

The subject of assay [11] is Chenopodium album (CHEAL). Nature of the assay: Glasshouse adjuvant test with nicosulfuron (Example 2). Conditions: nicosulfuron 30 or 60 g/ha, adjuvant 0.2% v/v, 200 l/ha; leaf area killed; mean over two rates, three replicates, 7, 14 and 21 days. The procedure:
as §1, §2

Assay [12] deals with Abutilon theophrasti (ABUTH). The description is as above. Conditions: nicosulfuron 30 or 60 g/ha, adjuvant 0.2% v/v, 200 l/ha; leaf area killed; mean over two rates, three replicates, 7, 14 and 21 days. Here is the method:
as §1, §2

Assay [13] relates to Digitaria sanguinalis (DIGSA). The description is as above. Particulars: nicosulfuron 30 or 60 g/ha, adjuvant 0.2% v/v, 200 l/ha; leaf area killed; mean over two rates, three replicates, 7, 14 and 21 days. Here is the method:
as §1, §2

In the next assay the test system is Brassica perenni (BRAPP). The description is as above. Particulars: nicosulfuron 30 or 60 g/ha, adjuvant 0.2% v/v, 200 l/ha; leaf area killed; mean over two rates, three replicates, 7, 14 and 21 days. The procedure: as §1, §2

As to `CCCCCCCCCCCCc1ccc(C(=O)NCCOCCOCCOCCOCCOCCOCCOCCO)cc1` [Compound 2, 4-DODECYL-N-[2-(2-{2-[2-(2-{2-[2-(2-HYDROXY-ETHOXY)-ETHOXY]-ETHOXY}-ETHOXY)-ETHOXY]-ETHOXY}-ETHOXY)-ETHYL]-BENZAMIDE], the “Mean percentage kill, Mean (g/ha)” value in [1] (nicosulfuron 30 or 60 g/ha, adjuvant 0.2% v/v, mean of the four weed species) was 73.9%. The “weed control compared to Turbocharge D” value in [1] (nicosulfuron formulation with adjuvant, in each case (all four weed species)) is recorded as “superior weed control”. The “Mean percentage kill AMARE” value in assay [2] is reported as 63.5%. The “Mean percentage kill ABUTH” value in assay [3] is 73.3%; in [9] it was 90%; in [12], 47.1%. The results for the “Mean percentage kill BRAPP” value (in assay [4]; with Brassica perenni (BRAPP)) were 68.2% and 86.4%, respectively. Besides, the “Mean percentage kill DIGSA” value amounted to 83.4% in assay [5] and 83.1% in assay [13]. Besides, the entries for the “Mean percentage kill, Mean across species” value in assay [6] and in [10] were 58.6% and 72.1%, respectively. For the same compound, the “Mean percentage kill XANST” value in assay [7] is on record as 68.8%. Also, the “Mean percentage kill CHEAL” value came to 34.1% in assay [8] and 80% in assay [11]. For the same compound, the “Mean percentage kill SETVI” value in the assay on Setaria viridis (SETVI) was 41.7%.
